Source: US20090105562A1, “SYSTEM AND METHODS FOR SCREENING OR ANALYZING TARGETS” (TAIPEI VETERANS GENERAL HOSPITAL, priority 2007, published 2009)

What was measured:
Type in all cases: cell-based, rat
Bcl-2 = Bcl-2 protein expression in NSCs by western blot and immunocytochemistry
Description: After the treatment with IM, the cell lysates of the NSCs were collected and the concentration of protein was determined by using the Protein Assay kit (Bio-Rad, Hercules, Calif., USA). Cell extracts with sample buffer were boiled for 5 minutes and then separated by 10% SDS-PAGE gel. After electrophoresis, the gel was transferred onto a PVDF membrane for immunoblotting. The membrane was first blocked by incubation in non-fat milk at room temperature for 2 hours, then incubated with anti-Bcl-2 antibody (Upstate Biotechnology Inc, Waltham, Mass., USA), and anti-β actin (Chemicon International Inc, Temecula, Calif., USA) for 2 hours at room temperature, washed five times with Tris-Buffered Saline Tween-20 (TBST), and then incubated further at room temperature with horseradish peroxidase-conjugated secondary antibody for 2 hours. Then the membrane was washed six times with TBST and specific bands were made visible by chemiluminescence (Santa Cruz Biotechnology, Santa Cruz, Calif., USA).
(§1) Double-stranded, short interfering RNA (siRNA) of BDNF and Bcl-2 were chemically synthesized by Ambion Inc., Austin, Tex., USA). The sense and antisense sequences of BDNF were designed as follows: Sense: […]tt; Antisense: AGCTTAAAAAGAG CTGtt, starting from nucleotide 137 of the Bcl-2 sequence (accession number L14680). The sense and antisense sequences of Bcl-2 were designed as follows: Sense: GCGCUGGAUAUAACUUCUUtt; Antisense: AAGAAGUUAUAUC CAGCGCtt, starting from nucleotide 137 of the Bcl-2 sequence (accession number L14680). In this test, the siRNA control used was siRNA-Cy3 (QIAGEN; sense sequence: UUCUCCGAACGUGU CACGUdTdT-3′-Cy3 and the complement 5′-ACGUGACACGUUCGGAGAAdTdT-3′-Cy3) as an irrelevant control. The transfection of siRNA was performed using Lipofectamine 2000 (Invitrogen, Carlsbad, Calif., USA) according to the manufacturer's instructions. In brief, cells were harvested with 0.25% trypsin, 1 mM ethylenediaminetetraacetic acid (EDTA) in phosphate buffered saline (PBS) without Ca^2+ and Mg^2+, and plated in six-well plates at 10^5 per cm^2. Then 3.5 μl siRNA (100 μM solution) was mixed with 125 μl serum-free culture medium for 5 minutes at room temperature. During this incubation period, 5 μl of Lipofectamine 2000 was diluted in 125 μl serum-free culture medium. These two mixtures were combined, mixed gently, and incubated for 20 minutes at room temperature for complex formation. This 250 μl of siRNA-Lipofectamine mixture was then added into the cells in a final volume of 2.5 ml per well. The transfected cells were cultured and fed daily with fresh medium until they were assayed.
An avidin-biotin complex method was used for the immunohistochemical staining in the differentiated NSCs. Following washes with the 3% hydrogen peroxide, sodium azide and antigens were retrieved using a microwave. Each slide was then treated with antibodies for Bcl-2 (Upstate Biotechnology, Waltham, Mass., USA), Nestin (Chemicon, Temecula, Calif., USA), 4′, 6-diamidino-2-phenylindole (DAPI; Chemicon, Temecula, Calif., USA) and MAP2 (Chemicon, Temecula, Calif., USA). Immunoreactive signals were detected with a mixture of biotinylated rabbit anti-mouse IgG and Fluoresave (Calbiochem, La Jolla, Calif., USA) under confocal microscopy (Olympus, FV300). Each individual sample was analyzed in triplicate. Furthermore, apoptotic cells were identified by the TUNEL method (In Situ Cell Death Detection Kit, POD, Roche Boehringer Mannheim Corp., IN, USA) as described in Chiou et al., J. Immunol. 167, 4098-4103, 2001. Briefly, the cells with cover slips were washed with 1× phosphate buffered saline (PBS), fixed with 4% of paraformaldehyde for 10 minutes, permeabilized with 0.1% of triton X-100 for 5 mins, and incubated with the TUNEL reagent provided for 1 hour. Chromogenic development was then applied with 3-amino-9-ethyl-carbazole, and slides were counterstained with H & E stain. […]

LPS-treated NSCs = assay: ELISA of IL-1β, IL-6 and TNF-α in LPS-treated NSCs
Description: IM was purchased from Sigma Chem. Co., St Louis, Mo., USA. NSCs were seeded on 24-well plates at a density of 2×10^4 cells/well in medium, followed by methyl thiazol tetrazolium assay (MTT assay) (Sigma-Aldrich Co., St Louis, Mo., USA) for cell viability. NSCs were incubated with 0.25 mg/ml MTT for 4 hours at 37° C. and the reaction was terminated by the addition of 100% isopropanol. The amount of MTT fromazon product was determined using a microplate reader and the absorbance was measured at 560 nm (SpectraMax 250, Molecular Devices, Sunnyvale, Calif., USA). NSCs were exposed to 0, 1, 2, 5, 10, 20, 30, 40, 50, 100, 200, and 300 μM of IM for 1, 3, 5, and 7 days, respectively. The activities of caspases 8 and 3 (Medical and Biological Laboratories Co., Ltd., Nagoya, Japan), and the concentration of IL-6, IL-1 and TNF-α (Pharmingen, San Diego, Calif., USA) were determined by ELISA kits and quantified by reading at 490 nm (MRX; Dynatech Laboratories, Chantilly, Va., USA). Each individual sample was analyzed in triplicate.
as §1

NSCs = assay: 5-HT in culture medium of NSCs by microdialysis with HPLC-ECD; details: p<0.05
Description: A microdialysis sampling system connected to the Petri dish was constructed in our laboratory according to the design originally described by Cheng et al., J. Chromatogr. A. 870, 405-411, 2000. The dialysis probe was made of a dialysis membrane 30 mm in length, with an outer diameter of 150 μm, and a nominal molecular weight cut-off of 13000. Ringer solution ([…]) was perfused through the probe at a flow-rate of 2 μl/min. Microdialysate samples were collected every 10 minutes. An HPLC-ED system (HTEC-500; Eicom, Kyoto, Japan) consisting of a three-electrode cell with an Ag/AgCl electrode as the reference electrode, a counter electrode and a graphite electrode as the working electrode was used to measure determine the levels of serotonin (5-HT). […] The column used for separation at room temperature (25° C.) was a PP-ODS (4.6×30 mm) (Eicom, Kyoto, Japan). The mobile phase, containing 0.1 M sodium phosphate buffer (0.1 M NaH2PO4: 0.1 M Na2HPO4=1000:160, v/v), 1% methanol, 500 mg/l sodium secanesulfonate and 50 mg/l EDTA, was adjusted to pH 6.0 with 5 M of NaOH with a flow rate of 0.5 ml/min. A volume of 10 μl of each microdialysate was injected manually into the chromatographic system and assayed on the same sampling day.

[1] = vs only LPS-treated NSCs, IM 3 μM, p<0.05
[2] = agent added to LPS-treated NSCs with IM, U0126 40 μM

SMILES	protein expression level of Bcl-2 in LPS-treated NSCs (Bcl-2; 3 μM IM vs 1, 2 μM IM-LPS-treated, only LPS-treated and control groups)	protein level of Bcl-2 (western blot) (Bcl-2; Day 3 IM-treated vs Day 3 non-IM-treated NSCs, p<0.05)	protein expression of Bcl-2 (immunohistochemistry) (Bcl-2; Day 7 IM-treated NSCs vs NSCs without IM treatment)	expression level of Bcl-2 protein (western blot) (Bcl-2; Day 7 IM-treated vs Day 3 or Day 5 IM-treated NSCs, p<0.05)	Bcl-2 expression in NSCs (Bcl-2; treatment with either agent alone)	IL-1β production in LPS-treated NSCs (LPS-treated NSCs; [1])	IL-6 production in LPS-treated NSCs (LPS-treated NSCs; [1])	TNF-α production in LPS-treated NSCs (LPS-treated NSCs; [1])	5-HT level in culture medium (NSCs; Day 7 and Day 14, IM-treated vs without IM-treatment NSCs)	Bcl-2 expression induced by IM in NSCs (Bcl-2; agent added to IM-treated NSCs)	level of IL-1β in LPS-treated NSCs with IM (LPS-treated NSCs; [2])	level of IL-6 in LPS-treated NSCs with IM (LPS-treated NSCs; [2])	level of TNF-α in LPS-treated NSCs with IM (LPS-treated NSCs; [2])	production of 5-HT of IM-treated NSCs (NSCs; agent added, Day 7 and Day 14)
CN(C)CCCN1c2ccccc2CCc2ccccc21 [IM, imipramine]	significantly increased	higher	significantly increased	significantly increased	activate	effectively reduces	effectively reduces	effectively reduces	significantly higher	–	–	–	–	–
N#CC(=C(/N)Sc1ccccc1N)/C(C#N)=C(\N)Sc1ccccc1N [U0126]	–	–	–	–	–	–	–	–	–	effectively blocked	significantly increased	significantly increased	significantly increased	significantly diminished
